Series [1] relates to TAA-induced liver fibrosis. On the set-up: species or system BALB/c mice. Conditions: mouse, in vivo.
For series [2] the following is noted: 0.5 h, pH 7.4.
The conditions of series [3]: 0.5 h, pH 7.4. This is another data set of the same source.
The subject of a further series is NLRP3 inflammasome. The series is classed as cell-based, C57BL/6 mice.
The conditions of series [4]: in vivo; cited from earlier work.

We go through 1 compound from article PMC9998255 (Archives of Pharmacal Research, 2023).

On to `CC(=O)OC[C@H]1O[C@@H]([S-])[C@H](OC(C)=O)[C@@H](OC(C)=O)[C@@H]1OC(C)=O.CCP(CC)CC.[Au+]` [auranofin], for which the “efficacy on liver fibrosis compared with 10 mg/kg aurocyanide” value in series [1] is “similar”. Also, the “percentage remaining after incubation with mouse liver microsomes” value in series [2] worked out at 1.5%. In series [3], the “percentage remaining after incubation with human liver microsomes” value stood at 6.9%. Besides, the “effect on ATP-induced IL-1β secretion” value in the series on NLRP3 inflammasome was “inhibited ATP-induced IL-1β secretion”. The “fraction absorbed through the gastrointestinal tract” value in series [4] is listed as 15–25%.
